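Compound exposure: 48 hours, 5 concentrations, 96-well plates. TGI marks complete inhibition of growth.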
Assays:
Experiment in all cases: NCI tumour cell line growth inhibition, 48 h
786-0 renal = test system: 786-0 renal
A498 renal = test system: A498 renal
A549 NSCLC = test system: A549 NSCLC
ACHN renal = test system: ACHN renal
BT-549 breast = test system: BT-549 breast
CAKI-1 renal = test system: CAKI-1 renal
CCRF-CEM leukemia = test system: CCRF-CEM leukemia
COLO 205 colon = test system: COLO 205 colon
DU-145 prostate = test system: DU-145 prostate
EKVX NSCLC = test system: EKVX NSCLC
HCT-116 colon = test system: HCT-116 colon
HCT-15 colon = test system: HCT-15 colon
HL-60(TB) leukemia = test system: HL-60(TB) leukemia
HOP-62 NSCLC = test system: HOP-62 NSCLC
HOP-92 NSCLC = test system: HOP-92 NSCLC
HS 578T breast = test system: HS 578T breast
HT29 colon = test system: HT29 colon
IGROV1 ovarian = test system: IGROV1 ovarian
K-562 leukemia = test system: K-562 leukemia
KM12 colon = test system: KM12 colon
LOX IMVI melanoma = test system: LOX IMVI melanoma
M14 melanoma = test system: M14 melanoma
MALME-3M melanoma = test system: MALME-3M melanoma
MCF7 breast = test system: MCF7 breast
MDA-MB-231 breast = test system: MDA-MB-231 breast
MDA-MB-435 = test system: MDA-MB-435
MDA-N = test system: MDA-N
MOLT-4 leukemia = test system: MOLT-4 leukemia
NCI-H226 lung = test system: NCI-H226 lung
NCI-H23 lung = test system: NCI-H23 lung
NCI-H460 lung = test system: NCI-H460 lung
NCI-H522 lung = test system: NCI-H522 lung
NCI/ADR-RES ovarian = test system: NCI/ADR-RES ovarian
OVCAR-3 ovarian = test system: OVCAR-3 ovarian
OVCAR-4 ovarian = test system: OVCAR-4 ovarian
OVCAR-5 ovarian = test system: OVCAR-5 ovarian
OVCAR-8 ovarian = test system: OVCAR-8 ovarian
PC-3 prostate = test system: PC-3 prostate
RPMI-8226 leukemia = test system: RPMI-8226 leukemia
RXF 393 renal = test system: RXF 393 renal
SF-268 CNS = test system: SF-268 CNS
SF-295 CNS = test system: SF-295 CNS
SF-539 CNS = test system: SF-539 CNS
SK-MEL-2 melanoma = test system: SK-MEL-2 melanoma
SK-MEL-28 melanoma = test system: SK-MEL-28 melanoma
SK-MEL-5 melanoma = test system: SK-MEL-5 melanoma
SK-OV-3 ovarian = test system: SK-OV-3 ovarian
SN12C renal = test system: SN12C renal
SNB-19 CNS = test system: SNB-19 CNS
SNB-75 CNS = test system: SNB-75 CNS
SW-620 colon = test system: SW-620 colon
T-47D breast = test system: T-47D breast
TK-10 renal = test system: TK-10 renal
U251 CNS = test system: U251 CNS
UACC-62 melanoma = test system: UACC-62 melanoma
UO-31 renal = test system: UO-31 renal

Q: For `COC(=O)Nc1nc2ccc(NS(=O)(=O)c3ccc(Cl)cc3)cc2[nH]1`, which TGI (786-0 renal) is on record?
A: Its TGI is 56.3 µM.

Q: And the TGI (A498 renal)?
A: The TGI was 9.91 µM.

Q: What about the TGI (A549 NSCLC) of the same compound?
A: The TGI was 72.1 µM.

Q: And the TGI (ACHN renal)?
A: Its TGI is over 100 µM.

Q: And the TGI (BT-549 breast)?
A: Its TGI is 55.2 µM.

Q: And the TGI (CAKI-1 renal)?
A: Its TGI is 21.1 µM.

Q: What about the TGI (CCRF-CEM leukemia) of the same compound?
A: Its TGI is 56.9 µM.

Q: What about the TGI (COLO 205 colon) of the same compound?
A: The TGI was 24.5 µM.

Q: And the TGI (DU-145 prostate)?
A: The TGI was 62.6 µM.

Q: And the TGI (EKVX NSCLC)?
A: The TGI was 33.2 µM.

Q: And the TGI (HCT-116 colon)?
A: The TGI was 11.1 µM.

Q: And the TGI (HCT-15 colon)?
A: The TGI was over 100 µM.

Q: And the TGI (HL-60(TB) leukemia)?
A: Its TGI is 12.6 µM.

Q: What about the TGI (HOP-62 NSCLC) of the same compound?
A: Its TGI is 31.5 µM.

Q: What about the TGI (HOP-92 NSCLC) of the same compound?
A: The TGI was 8.55 µM.

Q: What about the TGI (HS 578T breast) of the same compound?
A: The TGI was 8.86 µM.

Q: What about the TGI (HT29 colon) of the same compound?
A: The TGI was 15.5 µM.

Q: And the TGI (IGROV1 ovarian)?
A: Its TGI is 7.81 µM.

Q: What about the TGI (K-562 leukemia) of the same compound?
A: The TGI was over 100 µM.

Q: What about the TGI (KM12 colon) of the same compound?
A: The TGI was 14.9 µM.

Q: And the TGI (LOX IMVI melanoma)?
A: Its TGI is 16.9 µM.

Q: What about the TGI (M14 melanoma) of the same compound?
A: The TGI was 23.4 µM.

Q: And the TGI (MALME-3M melanoma)?
A: The TGI was 43.7 µM.

Q: And the TGI (MCF7 breast)?
A: Its TGI is 35.7 µM.

Q: What about the TGI (MDA-MB-231 breast) of the same compound?
A: The TGI was 28.5 µM.

Q: What about the TGI (MDA-MB-435) of the same compound?
A: The TGI was 5.5 µM.

Q: What about the TGI (MDA-N) of the same compound?
A: Its TGI is 5.93 µM.

Q: And the TGI (MOLT-4 leukemia)?
A: The TGI was over 100 µM.

Q: What about the TGI (NCI-H226 lung) of the same compound?
A: The TGI was 47.2 µM.

Q: What about the TGI (NCI-H23 lung) of the same compound?
A: Its TGI is 36.9 µM.

Q: What about the TGI (NCI-H460 lung) of the same compound?
A: The TGI was 43.1 µM.

Q: What about the TGI (NCI-H522 lung) of the same compound?
A: Its TGI is 8.19 µM.

Q: What about the TGI (NCI/ADR-RES ovarian) of the same compound?
A: The TGI was 47.7 µM.

Q: And the TGI (OVCAR-3 ovarian)?
A: The TGI was 10.7 µM.

Q: What about the TGI (OVCAR-4 ovarian) of the same compound?
A: Its TGI is 51.5 µM.

Q: What about the TGI (OVCAR-5 ovarian) of the same compound?
A: The TGI was 44.6 µM.

Q: What about the TGI (OVCAR-8 ovarian) of the same compound?
A: The TGI was 54.7 µM.

Q: And the TGI (PC-3 prostate)?
A: The TGI was 54.3 µM.

Q: What about the TGI (RPMI-8226 leukemia) of the same compound?
A: Its TGI is 26.8 µM.

Q: And the TGI (RXF 393 renal)?
A: The TGI was 26.4 µM.

Q: And the TGI (SF-268 CNS)?
A: Its TGI is 67 µM.

Q: What about the TGI (SF-295 CNS) of the same compound?
A: The TGI was 19.2 µM.

Q: What about the TGI (SF-539 CNS) of the same compound?
A: The TGI was 30.4 µM.

Q: What about the TGI (SK-MEL-2 melanoma) of the same compound?
A: The TGI was 26.8 µM.

Q: And the TGI (SK-MEL-28 melanoma)?
A: Its TGI is 27.3 µM.

Q: What about the TGI (SK-MEL-5 melanoma) of the same compound?
A: Its TGI is 16.7 µM.

Q: And the TGI (SK-OV-3 ovarian)?
A: The TGI was 44.2 µM.

Q: What about the TGI (SN12C renal) of the same compound?
A: The TGI was 72.3 µM.

Q: What about the TGI (SNB-19 CNS) of the same compound?
A: The TGI was 29.6 µM.

Q: What about the TGI (SNB-75 CNS) of the same compound?
A: Its TGI is 7.59 µM.

Q: What about the TGI (SW-620 colon) of the same compound?
A: Its TGI is over 100 µM.

Q: What about the TGI (T-47D breast) of the same compound?
A: Its TGI is 60.7 µM.

Q: And the TGI (TK-10 renal)?
A: The TGI was 17.7 µM.

Q: And the TGI (U251 CNS)?
A: The TGI was 47.5 µM.

Q: And the TGI (UACC-62 melanoma)?
A: Its TGI is 33.5 µM.

Q: And the TGI (UO-31 renal)?
A: Its TGI is 40.7 µM.
